These results are taken from publication PMC6079455, “Discovery of Novel Caeridins from the Skin Secretion of the Australian White's Tree Frog, Litoria caerulea” (International Journal of Genomics, 2018).

The test system of one series is MRSA NCTC12493. The series is described as follows: Antimicrobial test (broth microdilution). In kind it is cell-based, methicillin-resistant S. aureus. Here is the method:
(§1) The antimicrobial activities were tested by the broth microdilution method and evaluated by the determination of MIC values against different tested microorganisms, the Gram-positive bacteria, S. aureus (NCTC 10788), E. faecalis (NCTC12697), and MRSA (NCTC 12493); the Gram-negative bacterium, E. coli (NCTC 10418); and the yeast, C. albicans (NCYC 1467). The microorganisms were cultured to their log phase in MHB and diluted to 5 × 10^5 CFU/ml then subsequently treated with peptide solutions of gradient concentrations. After incubation at 37°C overnight, the growth of microorganisms was detected at a wavelength of 550 nm using a Synergy HT plate reader (Biolise BioTek ELx808, Winooski, VT, USA). The MICs were determined as the lowest concentration of peptide where […].
(In general: Broth dilution looks for growth in wells or tubes with falling amounts of substance.)

Another series deals with C. albicans NCYC1467. The series is described as follows: Antimicrobial test (broth microdilution). It is filed as cell-based, Candida albicans. The protocol: as §1
In another series the test system is E. coli. The series is described as follows: Membrane permeability on E. coli (ONPG / β-galactosidase). In kind it is cell-based, Escherichia coli. The note with it: ONPG hydrolysis, absorbance 420 nm, 0-30 min, 37°C, 1 × 10^8 CFU/ml, PBS pH 7.4. The protocol:
The membrane permeabilsation of E.coli was determined by measuring the release of β-galactosidase activity from E. coli into the culture medium with ONPG as the substrate. The log-phase E. coli was grown in MHB medium containing 2% lactose at 37°C, and the cells were pelleted. The cell pellets were suspended in 10 mM PBS (pH 7.4) containing 1.5 mM ONPG and diluted to 1 × 10^8 CFU/ml. Aliquots of cells were incubated with different concentrations of peptides at 37°C. Permeabilisation was measured at 420 nm every 2 min from 0 to 30 min, which reflects ONPG influx into the cells working as an indicator of the permeability of the tested peptides.

For another series, the system named is E. faecalis NCTC12697. The series is described as follows: Antimicrobial test (broth microdilution). It is filed as cell-based, Enterococcus faecalis. Here is the method:
as §1

Another series has as its system E. coli NCTC10418. The series is described as follows: Antimicrobial test (broth microdilution). It is filed as cell-based, Escherichia coli. Here is the method:
as §1

The subject of the next series is S. aureus. The series is described as follows: Membrane permeability on S. aureus (SYTOX Green). It is filed as cell-based, Staphylococcus aureus. The conditions noted are these: 2 h, 37°C, 1 × 10^8 CFU/ml, relative to 70% isopropanol. The protocol: The cell membrane permeability of S. aureus was tested with SYTOX Green Nucleic Acid Stain (Life Technologies, Carlsbad, CA, USA). The log-phase S. aureus was pelleted and suspended in 5% TSB in 0.85% NaCl solution to achieve 1 × 10^8 CFU/ml cells which was then treated with peptide solutions at 37°C for 2 h. The maximum membrane-compromised S. aureus was produced by 70% isopropanol treatment. Subsequently, cells were mixed with 5 μM SYTOX Green stain and incubated in the dark for 10 min. The fluorescence was measured in a 37°C Synergy HT plate reader (Biolise BioTek ELx808, Winooski, VT, USA) at excitation and emission wavelengths of 480 nm and 528 nm, respectively. The membrane permeability was calculated as (1) Membrane permeability%=F−F0/F1−F0×100%, where F represents the processed fluorescence intensity with peptide treatments, F0 represents the processed fluorescence intensity of untreated S. aureus, and F1 represents the processed fluorescence intensity in the maximum membrane-compromised S. aureus (70% isopropanol-treated). The fluorescence intensities of background were subtracted prior to calculation.

Series [1] has as its system human microvascular endothelial cell line HMEC-1. The series is described as follows: Membrane permeabilisation of HMEC-1 (LDH release). It is filed as cell-based. The note with it: 24 h; for LDH release from HMEC-1: relative to lysis buffer. Here is the method:
The membrane permeabilisation of the human microvascular endothelial cell line, HMEC-1, was evaluated using the Pierce LDH Cytotoxicity Assay Kit (Thermo Fisher Scientific, San Francisco, CA, USA). HMEC-1 cells were cultured in MCDB-131 medium (Life Technology, Paisley, UK) with 10% FBS, 10 ng/ml epidermal growth factor (EGF) (Life Technology, Paisley, UK), 10 mM L-glutamine (Life Technology, Paisley, UK), and 1% penicillin-streptomycin (Sigma-Aldrich, St. Louise, MO, USA), at 37°C under 5% CO2. Cells were seeded in a 96-well plate at 5000 cells per well and cultured overnight to 80% confluency. Then, the cells were treated with different peptide solutions of gradient concentrations from 10^−7 M to 10^−4 M for 24 h at 37°C, 5% CO2, and H2O-treated cells were made as the spontaneous LDH release control. Lysis buffer was added to cells and incubated for 45 min at 37°C, 5% CO2, to produce the lysis buffer-treated cells which were referred to as maximum LDH release control. Then 50 μl of each sample supernatant was transferred to a 96-well flat-bottom plate in triplicate wells, to which 50 μl of reaction mixture was added, incubated, and protected from light at room temperature for 30 min. After addition of 50 μl Stop Solution to each sample well and removal of bubbles present in sample wells, the absorbance at 490 nm and 680 nm was measured. The absorbance values at 680 nm were subtracted from the absorbance values at 490 nm before calculation of the level of LDH release (cytotoxicity). The level of LDH release was calculated as (2) LDH release %=L−L0/L1−L0×100%, where L refers to sample-treated LDH activity, L0 to spontaneous (H2O-treated) LDH activity, and L1 to maximum (lysis buffer-treated) LDH activity.
Data analysis was performed using one-way analysis of variance followed by Dunnett's multiple comparison tests with maximum LDH release control in GraphPad Prism (Version 6.0; GraphPad Software Inc., San Diego, CA, USA).
A general note: LDH leaks from cells whose membrane has failed.

Another series deals with horse erythrocytes. The series is described as follows: Haemolytic test. It is filed as cell-based. The note with it: 32 μM, horse red blood cells, 37°C, 2 h, relative to 1% Triton X-100. The protocol: The haemolysis of Caeridins was tested on prepared defrinated horse red blood cells (TCS Biosciences Ltd., Buckingham, UK) by incubating equal volumes of peptide solutions with erythrocyte suspensions at 37°C for 2 H. Maximum haemolysis control was included by incubating equal volumes of 1% Triton X-100 (Sigma-Aldrich, St. Louis, MO, USA) with erythrocyte suspensions. Lysis of erythrocytes was detected by the measurement of supernatant absorbance at a wavelength of 550 nm using a Synergy HT plate reader (Biolise BioTek ELx808, Winooski, VT, USA). The level of haemolysis was as calculated as (3) Haemolysis %=A−A0/A1−A0×100%, where A represents the absorbance with peptide treatments, A0 represents the average absorbance in untreated erythrocytes, and A1 represents the average absorbance in the maximum haemolysis control (1% Triton X-100-treated).

The mark [2] stands for this setting: MHB, 5 × 10^5 CFU/ml, 37°C overnight, 550 nm.

Ends that are not written are not given here.

In general, MBC refers to the smallest concentration meeting the test's criterion for killing. One may read the MIC as the lowest concentration found to suppress growth. As usually defined, the MFC is the lowest tested concentration that kills the fungus rather than only halting it. For GLFDIVGKLLGGLGL-NH2 [Caeridin-a1], the results for the MBC in the series with MRSA NCTC12493, in the series on E. faecalis NCTC12697 and in the series on E. coli NCTC10418 were 32 µM, 64 µM and 64 µM, respectively. Also, the MIC in the series on MRSA NCTC12493 (setting [2]) was found to be 16 µM; in the series on C. albicans NCYC1467 (setting [2]) it was 32 µM; with E. faecalis NCTC12697 (setting [2]) it was 32 µM; in the series with E. coli NCTC10418 (setting [2]), 32 µM. The MFC in the series on C. albicans NCYC1467 was 64 µM. Also, in the series with E. coli, the “membrane permeabilisation of E. coli at MIC and MBC” value is on record as “induced inner membrane permeabilisation within 30 min”. For the same substance, in the series with S. aureus (peptide at its MBC), the “membrane permeability of S. aureus at MBC” value is “massively compromised”. Also, the “membrane permeability of S. aureus at MIC” value in the series on S. aureus (peptide at its MIC) is recorded as “remained intact”. Further, the “LDH release from HMEC-1” value in series [1] (10 μM) is “approximately 10%”; in series [1] (100 μM) it was “about 50%”. The “cytotoxicity to HMEC-1 cells” value in series [1] (100 μM, LDH release) was “significant cytotoxicity”. Also, the haemolysis in the series with horse erythrocytes was determined as 18%.
